The term melting point denotes the temperature of the solid-liquid transition.

Our source for the melting point values is patent US6410530B1, “Substituted 1,2,3,4-tetrahydronaphthalene derivatives” (AstraZeneca AB, priority 1996, dated 2002).

On to `CN1CCC(c2cccc3c2C[C@H](NC(=O)c2ccc(C(F)(F)F)cc2)CC3)CC1` [Example 99, (R)-N-[8-(1-Methylpiperidine-4yl)-1,2,3,4-tetrahydro-2-naphthyl]-4-trifluoromethylbenzamide], for which the melting point lay within 163 to 166 °C.
To `CN1CCN(c2cccc3c2C[C@H](NC(=O)c2cccc(O)c2)CC3)CC1` [Example 88, (R)-N-[8-(4-Methylpiperazin-1-yl)-1,2,3,4-tetrahydro-2-naphthyl]-3-hydroxybenzamide] belongs 117 °C (dec.); to `CN1CCN(c2cccc3c2C[C@@H](NC(=O)c2ccc(C(F)(F)F)cc2)CC3)CC1` [Example 66, (S)-N-[8-(4-Methylpiperazin-1-yl)-1,2,3,4-tetrahydro-2-naphthyl]-4-trifluoromethylbenzamide], 202 to 204 °C; to `CN1CCN(c2cccc3c2C[C@H](NC(=O)c2ccc(C(=O)c4ccccc4)cc2)CC3)CC1` [Example 76, (R)-N-[8-(4-Methylpiperazin-1-yl)-1,2,3,4-tetrahydro-2-naphthyl]-4-benzoylbenzamide], 194 to 195 °C.
In turn, `CN1CCN(c2cccc3c2C[C@H](NC(=O)c2ccc(Br)cc2)CC3)CC1` [Example 73, (R)-N-[8-(4-Methylpiperazin-1-yl)-1,2,3,4-tetrahydro-2-naphthyl]-4-bromobenzamide] gave a melting point of 200 to 201 °C.
Turning to `O=C(N[C@@H]1CCc2cccc(N3CCNCC3)c2C1)c1ccc(N2CCOCC2)cc1` [Example 53, (R)-N-[8-(Piperazin-1-yl)-1,2,3,4-tetrahydro-2-naphthyl]-4-morpholinobenzamide], the melting point lay within 202 to 203 °C.
As for `CN1CCN(c2cccc3c2C[C@H](NC(=O)CCCc2ccccc2)CC3)CC1` [Example 82, (R)-N-[8-(4-Methylpiperazin-1-yl)-1,2,3,4-tetrahydro-2-naphthyl]-4-phenylbutanamide], the figure is 137 to 139 °C; as for `COc1ccc(C(=O)N[C@@H]2CCc3cccc(N4CCN(C)CC4)c3C2)cc1` [Example 49, (R)-N-[8-(4-Methylpiperazin-1-yl)-1,2,3,4-tetrahydro-2-naphthyl]-4-methoxybenzamide], 186 to 187 °C.
`CCCN1CCN(c2cccc3c2C[C@H](NC(=O)c2ccc(N4CCOCC4)cc2)CC3)CC1` [Example 57, (R)-N-[8-(4-Propylpiperazin-1-yl)-1,2,3,4-tetrahydro-2-naphthyl]-4-morpholinobenzamide] had a melting point of 183 to 185 °C.
To `CN1CCN(c2cccc3c2C[C@H](NC(=O)C(F)(F)F)CC3)CC1` belongs 158 to 159 °C.
Compound `CN1CCN(c2cccc3c2C[C@H](NC(=O)c2ccc(Cc4ccccc4)cc2)CC3)CC1` [Example 75, (R)-N-[8-(4-Methylpiperazin-1-yl)-1,2,3,4-tetrahydro-2-naphthyl]-4-benzylbenzamide] gave a melting point of 191 to 192 °C.
To `CCCCOc1ccc(C(=O)N[C@@H]2CCc3cccc(N4CCN(C)CC4)c3C2)cc1` [Example 70, (R)-N-[8-(4-Methylpiperazin-1-yl)-1,2,3,4-tetrahydro-2-naphthyl]-4-butoxybenzamide] belongs 190 to 191 °C; to `CCCN1CCN(c2cccc3c2C[C@H](NC(C)=O)CC3)CC1` [Example 24, (R)-N-[8-(4-Propylpiperazin-1-yl)-1,2,3,4-tetrahydro-2-naphthyl]acetamide], 139 to 140 °C.
The compound `Cc1ccccc1C(=O)N[C@@H]1CCc2cccc(N3CCN(C)CC3)c2C1` [Example 90, (R)-N-[8-(4-Methylpiperazin-1-yl)-1,2,3,4-tetrahydro-2-naphthyl]-2-methylbenzamide] displayed a melting point of 179 to 180 °C.
Compound `CN1CCN(c2cccc3c2C[C@H](NC(=O)c2ccc(Cl)cc2)CC3)CC1` [Example 74, (R)-N-[8-(4-Methylpiperazin-1-yl)-1,2,3,4-tetrahydro-2-naphthyl]-4-chlorobenzamide] gave a melting point of 204 to 205 °C.
As for `CN1CCN(c2cccc3c2C[C@H](NS(C)(=O)=O)CC3)CC1`, the figure is 135 to 137 °C; as for `CN1CCN(c2cccc3c2C[C@@H](NC(=O)c2ccc(N4CCOCC4)cc2)CC3)CC1` [Example 55, (S)-N-[8-(4-Methylpiperazin-1-yl)-1,2,3,4-tetrahydro-2-naphthyl]-4-morpholinobenzamide], 228 to 230 °C; as for `CCCCCCN1CCN(c2cccc3c2C[C@H](NC(C)=O)CC3)CC1` [Example 33, (R)-N-[8-(4-Hexylpiperazin-1-yl)-1,2,3,4-tetrahydro-2-naphthyl]acetamide], 117 to 118 °C.
`CN1CCN(c2cccc3c2C[C@H](NC(=O)Cc2ccccc2)CC3)CC1` [Example 80, (R)-N-[8-(4-Methylpiperazin-1-yl)-1,2,3,4-tetrahydro-2-naphthyl]phenylacetamide]: the melting point was 151 to 152 °C.
As for `CN1CCN(c2cccc3c2C[C@H](NC(=O)c2ccc(OS(C)(=O)=O)cc2)CC3)CC1` [Example 67, (R)-N-[8-(4-Methylpiperazin-1-yl)-1,2,3,4-tetrahydro-2-naphthyl]-4-methylsulfonyloxybenzamide], the figure is 199 to 200 °C; as for `CC(=O)N[C@@H]1CCc2cccc(N3CCN(C)CC3)c2C1`, 152 to 154 °C.
For `CN1CCN(c2cccc3c2C[C@H](NC(=O)c2ccc(N4CCSCC4)cc2)CC3)CC1` [Example 125, (R)-N-[8-(4-Methylpiperazin-1-yl)-1,2,3,4-tetrahydro-2-naphthyl]-4-thiomorpholinobenzamide], the melting point is 190 to 191 °C.
In the case of `CN1CCN(c2cccc3c2C[C@H](NC(=O)c2ccc(C4CCCCC4)cc2)CC3)CC1` [Example 63, (R)-N-[8-(4-Methylpiperazin-1-yl)-1,2,3,4-tetrahydro-2-naphthyl]-4-cyclohexylbenzamide], the melting point lay within 224 to 226 °C.
`Cc1cc(C(=O)N[C@@H]2CCc3cccc(N4CCN(C)CC4)c3C2)ccc1N1CCOCC1` [Example 61, (R)-N-[8-(4-Methylpiperazin-1-yl)-1,2,3,4-tetrahydro-2-naphthyl]-3-methyl-4-morpholinobenzamide] registered a melting point of 172 to 175 °C.
`CN1CCN(c2cccc3c2CC[C@@H](NC(=O)c2ccc(N4CCOCC4)cc2)C3)CC1` [Example 118, (R)-N-[5-(4-Methylpiperazin-1-yl)-1,2,3,4-tetrahydro-2-naphthyl]-4-morpholinobenzamide]: the melting point was in the range of 127 to 128 °C.
Consider `CN1CCN(c2cccc3c2C[C@H](N(C)C(=O)c2ccc(C(F)(F)F)cc2)CC3)CC1` [Example 122, (R)-N-Methyl-N-[8-(4-methylpiperazin-1-yl)-1,2,3,4-tetrahydro-2-naphthyl]-4-trifluoromethylbenzamide], for which the melting point was in the range of 123 to 125 °C.
`CCN1CCN(c2cccc3c2C[C@H](NC(C)=O)CC3)CC1` registered a melting point of 142 to 143 °C.
`CN1CCN(c2cccc3c2C[C@H](NC(=O)c2ccccc2)CC3)CC1` [Example 48, (R)-N-[8-(4-Methylpiperazin-1-yl)-1,2,3,4-tetrahydro-2-naphthyl]benzamide] came in with a melting point of 195 to 196 °C.
